Results: patent US10172814B2, “Substituted pyridyl-cycloalkyl-carboxylic acids, compositions containing them and medical uses thereof” (BAYER PHARMA AKTIENGESELLSCHAFT, priority 2014, dated 2019)

molecular target: human PTGES (Homo sapiens (Human), UniProt O14684); test: Human PTGES biochemical enzyme inhibition assay (conversion of PGH2 to PGE2, TR-FRET); conditions: Enzymatic conversion of PGH2 to PGE2; read-out: Human PTGES IC50
Summary of the method: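 FLAG-tagged human PTGES from Hi-5 insect cells preincubated 15–20 min with compound in pH 7.2 phosphate buffer with 2.5 mM reduced glutathione; reaction started with 8 nM PGH2 final, stopped with SnCl2/KF.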

human PTGES, sequence (O14684 whole entry): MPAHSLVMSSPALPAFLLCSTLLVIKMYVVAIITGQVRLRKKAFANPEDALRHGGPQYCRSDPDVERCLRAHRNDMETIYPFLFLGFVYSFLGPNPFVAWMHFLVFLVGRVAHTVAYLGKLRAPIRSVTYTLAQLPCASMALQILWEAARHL

| Structure (SMILES) | IC50 [nM] |
| --- | --- |
| Cc1ncc(-c2ccc(C(C(=O)Nc3cccc(C(CC(=O)O)C4CC4)c3C)C3CCCC3)cc2)cc1Cl (mixture of isomers) [Example 108, (3R/S)-3-[3-({(2R/S)-2-[4-(5-chloro-6-methylpyridin-3-yl)phenyl]-2-cyclopentylacetyl}amino)-2-methylphenyl]-3-cyclopropylpropanoic acid] | 31.9 |
| Cc1c(CCC(=O)O)cccc1NC(=O)C(c1ccc(-c2cncc(C(F)(F)F)c2)cc1)C1CCC1 (single isomer, unassigned; (+)) [Example 56, (+) 3-{3-[(Cyclobutyl{4-[5-(trifluoromethyl)pyridin-3-yl]phenyl}acetyl)amino]-2-methylphenyl}propanoic acid] | 7520 |
| O=C(O)CCc1cccc(NC(=O)[C@@H](c2ccc(-c3cncc(C(F)(F)F)c3)cc2)C2CCCC2)c1C(F)(F)F [Example 215, 3-[3-{[(2R)-2-cyclopentyl-2-{4-[5-(trifluoromethyl)pyridin-3-yl]phenyl}acetyl]amino}-2-(trifluoromethyl)phenyl]propanoic acid] | 258 |
| Cc1c(NC(=O)C(c2ccc(-c3cncc(C(F)(F)F)c3)cc2)C2CCCC2)cccc1OCC(=O)O (racemic) [Example 33, (R/S) {3-[(Cyclopentyl{4-[5-(trifluoromethyl)pyridin-3-yl]phenyl}acetyl)amino]-2-methylphenoxy}acetic acid] | 14.3 |
| Cc1c(CCC(=O)O)cccc1NC(=O)C(c1ccc(-c2cncc(C(C)(C)O)c2)cc1)C1CCCC1 (racemic) [Example 9, (R/S) 3-{3-[(Cyclopentyl{4-[5-(2-hydroxypropan-2-yl)pyridin-3-yl]phenyl}acetyl)amino]-2-methylphenyl}propanoic acid] | 3560 |
| CCC(CC(=O)O)c1cccc(NC(=O)C(c2ccc(-c3cncc(F)c3)cc2)C2CCCC2)c1C (single isomer, unassigned; stereoisomer 4) [Example 106, 3-[3-({[4-(5-Fluoropyridin-3-yl)phenyl](cyclopentyl)acetyl}amino)-2-methylphenyl]pentanoic acid, Stereoisomer 4] | 156 |
| Cc1c(CCC(=O)O)cccc1NC(=O)C(c1ccc(-c2cncc(Cl)c2)cc1)C1CCCC1 (racemic) [Example 16, (R/S) 3-[3-({[4-(5-Chloropyridin-3-yl)phenyl](cyclopentyl)acetyl}amino)-2-methylphenyl]propanoic acid] | 59.6 |
| Cc1c(NC(=O)C(c2ccc(-c3cncc(Cl)c3)c(F)c2)C2CCC2)cccc1C(C)CC(=O)O (single isomer, unassigned; stereoisomer 2) [Example 151, 3-[3-({[4-(5-Chloropyridin-3-yl)-3-fluorophenyl](cyclobutyl)acetyl}amino)-2-methylphenyl]butanoic acid, Stereoisomer 2] | 46.5 |
| Cc1c(CCC(=O)O)cccc1NC(=O)C(c1ccc(-c2cncc(OC(C)C)c2)c(F)c1)C1CCCC1 (single isomer, unassigned; (-)) [Example 199, (−) 3-[3-({cyclopentyl[3-fluoro-4-(5-isopropoxypyridin-3-yl)phenyl]acetyl}amino)-2-methylphenyl]propanoic acid, Single Enantiomer] | 30.2 |
| Cc1c(CCC(=O)O)cccc1NC(=O)C(c1ccc(-c2cncc(C(F)F)c2)c(F)c1)C1CCCC1 (racemic) [Example 50, (R/S) 3-{3-[(cyclopentyl{4-[5-(difluoromethyl)pyridin-3-yl]-3-fluorophenyl}acetyl)amino]-2-methylphenyl}propanoic acid] | 42.9 |
| Cc1c(NC(=O)C(c2ccc(-c3cncc(Cl)c3)cc2)C2CCC2)cccc1C(C)CC(=O)O (mixture of isomers) [Example 135, (3R/S)-3-[3-({(2R/S)-2-[4-(5-Chloropyridin-3-yl)phenyl]-2-cyclobutylacetyl}amino)-2-methylphenyl]butanoic acid] | 86.2 |
| Cc1c(CCC(=O)O)cccc1NC(=O)C(c1ccc(-c2cncc(OC(F)F)c2)cc1)C1CCC1 (racemic) [Example 63, (R/S) 3-{3-[(Cyclobutyl{4-[5-(difluoromethoxy)pyridin-3-yl]phenyl}acetyl)amino]-2-methylphenyl}propanoic acid] | 103 |
| Cc1c(NC(=O)[C@@H](c2ccc(-c3cncc(Cl)c3)cc2)C2CCCC2)cccc1C(O)CC(=O)O (stereo partly drawn) [Example 193, 3-[3-({(2R)-2-[4-(5-chloropyridin-3-yl)phenyl]-2-cyclopentylacetyl}amino)-2-methylphenyl]-3-hydroxypropanoic acid] | 232 |
| Cc1cc(C(C(=O)Nc2cccc(CCC(=O)O)c2C)C2CCCC2)c(Cl)cc1-c1cncc(Cl)c1 (racemic) [Example 172, (R/S) 3-[3-({[2-chloro-4-(5-chloropyridin-3-yl)-5-methylphenyl](cyclopentyl)acetyl}amino)-2-methylphenyl]propanoic acid] | 1860 |
| Cc1c(NC(=O)C(c2ccc(-c3cncc(Cl)c3)cc2)C2CCC2)cccc1C(C)CC(=O)O (single isomer, unassigned; stereoisomer 2) [Example 137] | 2900 |
| Cc1ncc(-c2ccc(C(C(=O)Nc3cccc(CCC(=O)O)c3C)C3CCCC3)cc2Cl)cc1Cl (racemic) [Example 176, (R/S) 3-[3-({[3-chloro-4-(5-chloro-6-methylpyridin-3-yl)phenyl](cyclopentyl)acetyl}amino)-2-methylphenyl]propanoic acid] | 198 |
| CCOc1cncc(-c2ccc(C(C(=O)Nc3cccc(CCC(=O)O)c3C)C3CCCCC3)cc2)c1 (racemic) [Example 67, (R/S) 3-[3-({Cyclohexyl[4-(5-ethoxypyridin-3-yl)phenyl]acetyl}amino)-2-methylphenyl]propanoic acid] | 328 |
| Cc1c(NC(=O)C(c2ccc(-c3cncc(C(F)(F)F)c3)c(F)c2)C2CCCC2)cccc1C(C)CC(=O)O (single isomer, unassigned; stereoisomer 3) [Example 118, 3-{3-[(Cyclopentyl{3-fluoro-4-[5-(trifluoromethyl)pyridin-3-yl]phenyl}acetyl)amino]-2-methylphenyl}butanoic acid, Stereoisomer 3] | 383 |
| Cc1ncc(-c2ccc(C(C(=O)Nc3cccc(C(C)CC(=O)O)c3C)C3CCCC3)cc2F)cc1Cl (mixture of isomers) [Example 120, (3R/S)-3-[3-({(2R/S)-2-[4-(5-Chloro-6-methylpyridin-3-yl)-3-fluorophenyl]-2-cyclopentylacetyl}amino)-2-methylphenyl]butanoic acid] | 15.9 |
| Cc1c(NC(=O)C(c2ccc(-c3cncc(Cl)c3)c(F)c2)C2CCCC2)cccc1C(C)CC(=O)O (single isomer, unassigned; stereoisomer 2) [Example 127, 3-[3-({[4-(5-Chloropyridin-3-yl)-3-fluorophenyl](cyclopentyl)acetyl}amino)-2-methylphenyl]butanoic acid, Stereoisomer 2] | 31.5 |
| Cc1c(NC(=O)C(c2ccc(-c3cncc(Cl)c3)c(F)c2)C2CCC2)cccc1C(C)CC(=O)O (single isomer, unassigned; stereoisomer 1) [Example 150, 3-[3-({[4-(5-Chloropyridin-3-yl)-3-fluorophenyl](cyclobutyl)acetyl}amino)-2-methylphenyl]butanoic acid, Stereoisomer 1] | 2620 |
| Cc1ncc(-c2ccc(C(C(=O)Nc3cccc(C(C)CC(=O)O)c3C)C3CCCC3)cc2F)cc1Cl (single isomer, unassigned; stereoisomer 4) [Example 124, 3-[3-({[4-(5-Chloro-6-methylpyridin-3-yl)-3-fluorophenyl](cyclopentyl)acetyl}amino)-2-methylphenyl]butanoic acid, Stereoisomer 4] | 5.06 |
| Cc1c(CCC(=O)O)cc(F)cc1NC(=O)C(c1ccc(-c2cncc(C(F)(F)F)c2)cc1)C1CCCC1 (racemic) [Example 167, (R/S) 3-{3-[(cyclopentyl{4-[5-(trifluoromethyl)pyridin-3-yl]phenyl}acetyl)amino]-5-fluoro-2-methylphenyl}propanoic acid] | 295 |
| CCC(CC(=O)O)c1cccc(NC(=O)C(c2ccc(-c3cnc(C)c(C(F)(F)F)c3)c(F)c2)C2CCCC2)c1C (single isomer, unassigned) [Example 201] | 6.57 |
| Cc1c(CCC(=O)O)cccc1NC(=O)C(c1ccc(-c2cncc(CC(F)(F)F)c2)c(F)c1)C1CCCC1 (single isomer, unassigned; (-)) [Example 196, (−) 3-{3-[(cyclopentyl{3-fluoro-4-[5-(2,2,2-trifluoroethyl)pyridin-3-yl]phenyl}acetyl)amino]-2-methylphenyl}propanoic acid, Single Enantiomer] | 74.7 |
| Cc1c(CCC(=O)O)cccc1NC(=O)C(c1ccc(-c2cncc(C(F)(F)F)c2)c(F)c1)C1CCCC1 (single isomer, unassigned; (+)) [Example 49, (+) 3-{3-[(Cyclopentyl{3-fluoro-4-[5-(trifluoromethyl)pyridin-3-yl]phenyl}acetyl)amino]-2-methylphenyl}propanoic acid] | 530 |
| Cc1c(NC(=O)C(c2ccc(-c3cncc(Cl)c3)c(F)c2)C2CCCC2)cccc1C(C)CC(=O)O (mixture of isomers) [Example 125, (3R/S)-3-[3-({(2R/S)-2-[4-(5-Chloropyridin-3-yl)-3-fluorophenyl]-2-cyclopentylacetyl}amino)-2-methylphenyl]butanoic acid] | 22.9 |
| COc1ncccc1-c1ccc(C(C(=O)Nc2cccc(CCC(=O)O)c2C)C2CCCC2)cc1 (racemic) [Example 20, (R/S) 3-[3-({Cyclopentyl[4-(2-methoxypyridin-3-yl)-phenyl]acetyl}amino)-2-methylphenyl]propanoic acid] | 2550 |
| Cc1c(NC(=O)C(c2ccc(-c3cncc(Cl)c3)c(F)c2)C2CCCC2)cccc1C(C)CC(=O)O (single isomer, unassigned; stereoisomer 3) [Example 128, 3-[3-({[4-(5-Chloropyridin-3-yl)-3-fluorophenyl](cyclopentyl)acetyl}amino)-2-methylphenyl]butanoic acid, Stereoisomer 3] | 1730 |
